Measurements as given in US5288723A, “A composition and a method of using veratridine and epinephrine as a local anesthetic” (priority 1991, dated 1994).

Experiments:
[1] = tested on: angiotensin II receptors; conditions: reported by Ball et al.; cited from earlier work
[2] = tested on: A-fibers of rabbit vagus nerve; test: Sucrose-gap recording in the veratrinized region, A-fibers; set-up: species or system New Zealand white rabbit
Procedure: Adult male New Zealand white rabbits (3±0.5 kg) were pretreated intramuscularly with a mixture of ketamine (200 mg), xylazine (20 mg) and atropine (0.4 mg) for sedation. Ten minutes after this treatment, the animals were anesthetized with diethyl ether. After cessation of respiration, a longitudinal skin incision was made, and the cervical portion of both vagus nerves was dissected. The vagus nerves were temporarily stored at room temperature (22° C.) in a beaker containing modified HEPES Liley (HL) solution stirred constantly by aeration with a mixture of 95% oxygen and 5% carbon dioxide. […]
VTD free base (no. V-5754, lot 58F-7828, Sigma, St. Louis, Mo.) was stored in a desiccator below 0° C. and was used to prepare a 2 mM stock solution in dimethyl sulfoxide [DMSO], Fisher Scientific, lot 861316), which also was stored at below 0° C. […] The maximum equivalent content of DMSO is 0.5%, and in three control experiments we detected no change in electrophysiologic behavior with 1% DMSO.
Nerves were desheathed and mounted in an acrylic sucrose-gap chamber (FIG. 2C). […] In contrast to the extracellular chamber described above, which measured APc in a drug-free segment after they had propagated through a VTD solution, the sucrose gap measured the behavior of the nerve membrane directly exposed to drug, the "veratrinized" nerve. […]

## COc1ccc(C(=O)OC2CCC3(C)C4CCC5C6(O)CC(O)C7(O)C(CN8CC(C)CCC8C7(C)O)C6(O)CC53OC24O)cc1OC (stereo not drawn) [VTD, veratridine]
[1]
  Inhibition of angiotensin II receptors: selective inhibitor of angiotensin II receptors
[2]; 0.2 μM VTD, 0.5 Hz stimulation
  A-fiber deflection between beginning and end of the train: unchanged
[2]; 0.5 μm VTD
  A-fiber elevation after addition of VTD: unchanged
